Test results taken from the NIST ThermoML archive (doi:10.1016/j.fluid.2014.01.041).
Numbers after ± are expanded uncertainties.

Details: Crystal; DTA

Normal melting temperature	SMILES
106 ± 0.4 °C	CC(=O)CCCCn1c(=O)c2c(ncn2C)n(C)c1=O [3,7-dimethyl-1-(5-oxohexyl)-3,7-dihydro-1H-purine-2,6-dione]
122.0 ± 0.4 °C	C(=C\c1ccccc1)/CN1CCN(C(c2ccccc2)c2ccccc2)CC1 [cinnarizine]

SMILES	Normal melting temperature
NC(=O)CN1CCCC1=O [2-oxo-1-pyrrolidineacetamide]	125 ± 0.4 °C
